From patent publication US20200354348A1, “SEMISYNTHETIC AURONES AND METHODS OF USE THEREOF” (University of Kentucky Research Foundation, priority 2018, published 2020)
Entries after “also recorded” stand apart in the source; their conditions may differ.

Legend:
Jurkat = experiment: IC50 in leukemia cell lines; type: cell-based; settings: Homo sapiens, T-ALL
NCI-H226 = experiment: NCI60 screening; type: cell-based; settings: Homo sapiens, Non-Small Cell Lung Cancer
PC-3 tumor xenografts = experiment: PC-3 xenografts in nude mice; type: in vivo; settings: 10 mg/kg/day
Procedure: PC-3 cells suspended in PBS were subcutaneously injected to the lower flanks of immune-deficient nude mice at a density of 2×10^6 cells/200 ul (PBS). After tumor establishment, 4A formulated in tween80 (5%), DMSO (10%), PEG400 (25%) and PBS (60%) were administered in an intraperitoneal fashion to mice at a daily dose of 10 mg (compound)/kg (mouse). Blank vehicle was used as a control. Tumors and mouse weights were measured and tumor volumes were calculated as Length×width^2/2.

[1] = tested on: PC-3, LS174T and HEK293T cells; experiment: Cell morphology; type: cell-based; settings: 300 nM, 6 h
[2] = tested on: LS174T colon and PC3 prostate cancer cells; experiment: Combination with CDK inhibitor R03306, proliferation; type: cell-based
A549(ATCC) = experiment: NCI60 screening; type: cell-based; settings: Homo sapiens, Non-Small Cell Lung Cancer
UACC-257 = experiment: NCI60 screening; type: cell-based; settings: Homo sapiens, Melanoma
HCC-2998 = experiment: NCI60 screening; type: cell-based; settings: Homo sapiens, Colon Cancer
HEK193T cells = experiment: In vivo microtubule assembly assay in cells; type: cell-based
Procedure: In vivo microtubule assembly assay. The amount of insoluble polymerized microtubules and soluble tubulin dimers in cells after exposure to compounds were detected following the method by Blagosklommy et al. (Cancer research 55, 4623-4626 (1995). Cells were seeded in 6-well plate at 50% confluency and cultured overnight. DMSO or compounds were added and the cells were incubated for additional 6 hours. The medium was removed and cells were washed with PBS three times followed by addition of lysis buffer [20 mM Tris-HCl (pH 6.8), 1 mM MgCl2, 2 mM EGTA, 20 μg/mL aprotinin, 20 μg/mL leupeptin, 1 mM PMSF, 1 mM orthovanadate, and 0.5% NP40]. The lysates were centrifuged at 12000 g for 10 min to obtain supernatants and pellets, where were mixed with loading buffer and boiled. Then standard western blot analysis against β-tubulin was performed as described by our previous work. (ACS Chem Biol 8, 796-803, doi:10.1021/cb3005353 (2013)).

LS174T cells = experiment: Proliferation inhibition assay, LS174T; type: cell-based; settings: Homo sapiens, LS174T, Table 2
Procedure: (§1) Cell Culture. LS174T (colon cancer cells), PC-3 (prostate cancer cells), MCF-7 (beast) and A549 (lung) were cultured in the medium recommended by American Type Culture Collection at 37° C. with 5% CO2 atmosphere in a water jacketed incubator. Ovcar-8 and NCI/ADR-RES are gifts from Dr. Markos Leggas. Alpha-tubulin antibodies, TRITC-conjugated anti-rabbit antibody.
(§2) Proliferation inhibition assay. Cancer cells were seeded into 24-well plates at a density of 20,000 cells per well in 1 mL of culture medium and cultured overnight at 37° C. Compounds and the vehicle control DMSO were added to the cells. After 6 days, medium was removed and 100 μL of trypsin was added. Then the cells resuspended in pbs were counted by Vi-CELL XR 2.03 (Beckman Coulter, Inc. USA). The ratio R of the number of viable cells in the compound treatment group to the number of viable cells in DMSO treatment group was taken as relative growth, and the percentage growth inhibition was calculated as: (1−R)*100. For initial testing, compounds were added to the cells at a final concentration 10 μM. Active compounds at 10 μM would be tested at lower concentrations.

OVCAR-5 = experiment: NCI60 screening; type: cell-based; settings: Homo sapiens, Ovarian Cancer
REH = experiment: IC50 in leukemia cell lines; type: cell-based; settings: Homo sapiens, B-ALL
OVCAR-4 = experiment: NCI60 screening; type: cell-based; settings: Homo sapiens, Ovarian Cancer
Loucy = experiment: IC50 in leukemia cell lines; type: cell-based; settings: T-ALL
A498 = experiment: NCI60 screening; type: cell-based; settings: Homo sapiens, Renal Cancer
PC-3 cells [3] = experiment: Proliferation inhibition assay, PC-3; type: cell-based; settings: Homo sapiens, PC-3, Table 2
Procedure: as §1, §2

NCI-H322M = experiment: NCI60 screening; type: cell-based; settings: Homo sapiens, Non-Small Cell Lung Cancer
EKVX = experiment: NCI60 screening; type: cell-based; settings: Homo sapiens, Non-Small Cell Lung Cancer
HCC1007-BL = experiment: IC50 in leukemia cell lines; type: cell-based; settings: Normal B-Lymphoblast
SK-MEL-28 = experiment: NCI60 screening; type: cell-based; settings: Homo sapiens, Melanoma
PC-3 cells [4] = experiment: Immunofluorescence imaging of tubulin networks; type: cell-based; settings: α-tubulin immunofluorescence
Procedure: Tubulin networks were examined by confocal immunofluorescence imaging. Briefly, PC3 cells were placed at a density of 80,000/mL to 24-well plates equipped with round microscope glass cover slides. After culturing at 37° C. for 24 hours, DMSO or compounds were added to the cells and incubated for additional 6 hours. Then the medium was removed and the cells were washed with pbs three times. Primary anti-α-tubulin antibody was added and incubated overnight at 4° C. After additional washing, secondary TRITC-conjugated anti-rabbit antibody was added for 40 min, followed by additional washing and staining with DAPI. Final washing was performed and the cover slides were inverted onto glass slides. Images (40×) were taken using a Nikon confocal microscope with excitation at 557 nm and emission at 576 nm.

RPMI58402 = experiment: IC50 in leukemia cell lines; type: cell-based; settings: RPMI58402, T-ALL
NCI-BL2009 = experiment: IC50 in leukemia cell lines; type: cell-based; settings: NCI-BL2009, Normal B-Lymphoblast
NCI-H522 = experiment: NCI60 screening; type: cell-based; settings: Homo sapiens, Non-Small Cell Lung Cancer
Molt-16 = experiment: IC50 in leukemia cell lines; type: cell-based; settings: Homo sapiens; Molt-16, T-ALL

## CCn1cc(/C=C2\Oc3cc(OCC#N)ccc3C2=O)c2cc(OC)ccc21 [Aurone 4a, (Z)-2-((2-((1-Ethyl-5-methoxy-1H-indol-3-yl)methylene)-3-oxo-2,3-dihydrobenzofuran-6-yl)oxy)acetonitrile]
Jurkat
  IC50: 0.273 µM
NCI-H226
  GI50: 57.4 µM
PC-3 tumor xenografts
  gross toxicity / body weights of treated mice: without significant effects on body weights; also recorded: no apparent gross toxicity; also recorded: no general toxicity
PC-3 tumor xenografts; intraperitoneal
  in vivo tumor inhibitory effect: inhibited PC-3 tumor xenografts; also recorded: significant, tumor-growth suppression
[1]
  cell morphology: Cell morphologies were changed
[2]
  combination effect with R03306 on proliferation: synergistic effects
A549(ATCC)
  GI50: 5.1 µM
UACC-257
  GI50: 67.1 µM
HCC-2998
  GI50: 3.44 µM
HEK193T cells
  tubulin polymerization in cells: decreased tubulin polymerization
LS174T cells; 100 nM
  inhibition at 0.1 µM: 11 ± 11%
LS174T cells; 300 nM
  inhibition at 0.3 µM: 93 ± 14%
LS174T cells; 1 μM
  inhibition at 1 µM: 97 ± 0.4%
LS174T cells; 10 μM
  inhibition at 10 µM: 96 ± 0.8%
OVCAR-5
  GI50: 2.52 µM
REH
  IC50: 0.287 µM
OVCAR-4
  GI50: 19 µM
Loucy
  IC50: 0.334 µM
A498
  GI50: 10.3 µM
PC-3 cells [3]; 100 nM
  inhibition at 0.1 µM: 58 ± 11%
PC-3 cells [3]; 300 nM
  inhibition at 0.3 µM: 93 ± 2.8%
PC-3 cells [3]; 1 μM
  inhibition at 1 µM: 95 ± 2.5%
NCI-H322M
  GI50: 1.43 µM
EKVX
  GI50: 2.73 µM
HCC1007-BL
  IC50: 1.38 µM
SK-MEL-28
  GI50: 10.2 µM
PC-3 cells [4]
  microtubule structures: inhibited microtubule structures
RPMI58402
  IC50: 0.301 µM
NCI-BL2009
  IC50: 1.25 µM
NCI-H522
  GI50: 3.13 µM
Molt-16
  IC50: 0.234 µM
